Where two headings read alike, the source gives them in different places.
What was measured:
[1] = molecular target: HIPK3 (Homo sapiens, UniProt Q9H422); assay: Kinase screen: HIPK3 assay; format: biochemical; conditions: read-out: Mean Remaining Enzyme Activity (%)
Protocol: Generally, the same procedure was used for all assays. Since the total assay volume was 25.5 microliters, 0.5 microliters of inhibitors at 51× assay concentration were added to the plates before any other addition.
The basic procedure was to add 0.5 microliters inhibitor/control in DMSO to plate. Fifteen microliters of enzyme/substrate/buffer mix were added and incubated for 5 min. Ten microliters MgATP at the relevant concentration were added and incubated for 30 min. The assay was stopped by adding 5 microliters of 3% orthophosphoric acid. The assay was transferred to a p81 filter plate and read in a scintillation counter of 30 sec/well. Note that this assay procedure was not followed for MKK1, which instead involved a two-step assay, and PKC alpha, which required the addition of lipid vesicles.
HIPK3 assay: 5-20 mU of HIPK3 (diluted in 50 mM Tris (pH 7.5), 0.1 mM EGTA, 1 mg/ml BSA, 0.1%, b-Mercaptoethanol) was assayed against MBP in a final volume of 25.5 μl containing 50 mM Tris (pH 7.5), 0.1 mM EGTA, 0.1%, b-Mercaptoethanol, 0.33 mg/ml MBP, 10 mM magnesium acetate and 0.02 mM [33P-g-ATP] (500-1000 cpm/pmole) and incubated for 30 mins at room temperature. Assays were stopped by addition of 5 μl of 0.5M (3%) orthophosphoric acid. Assays were harvested onto P81 Unifilter plates using a wash buffer of 50 mM orthophosphoric acid.

[2] = test system: SN12C; assay: cells; conditions: Homo sapiens
[3] = test system: HCT-15; assay: cells; conditions: Homo sapiens
[4] = test system: A549/ATCC; assay: cells; conditions: Homo sapiens
[5] = test system: UACC-257; assay: cells; conditions: Homo sapiens
[6] = test system: DU-145
[7] = test system: HS 578T; assay: cells; conditions: Homo sapiens
[8] = test system: SW-620; assay: cells; conditions: Homo sapiens
[9] = test system: SF-295
[10] = test system: CAKI-1; assay: cells; conditions: Homo sapiens
[11] = test system: HS 578T; conditions: for Mean Optical Densities / Percent Growth: HS 578T
[12] = test system: SF-295; assay: cells; conditions: Homo sapiens
[13] = test system: TK-10; assay: cells; conditions: Homo sapiens
[14] = test system: SF-268
[15] = test system: SK-OV-3; assay: cells; conditions: Homo sapiens
[16] = test system: SK-MEL-5
[17] = test system: SK-MEL-2; assay: cells; conditions: Homo sapiens
[18] = test system: MDA-MB-435; assay: cells; conditions: Homo sapiens
[19] = test system: BT-549; assay: cells; conditions: Homo sapiens
[20] = test system: MDA-MB-435
[21] = DU-145, log10 concentration −4.0
[22] = DU-145, log10 concentration −5.0
[23] = DU-145, log10 concentration −6.0
[24] = DU-145, log10 concentration −7.0
[25] = DU-145, log10 concentration −8.0
[26] = SF-295, log10 concentration −4.0
[27] = SF-295, log10 concentration −5.0
[28] = SF-295, log10 concentration −6.0
[29] = SF-295, log10 concentration −7.0
[30] = SF-295, log10 concentration −8.0
[31] = SF-268, log10 concentration −4.0
[32] = SF-268, log10 concentration −5.0
[33] = SF-268, log10 concentration −6.0
[34] = SF-268, log10 concentration −7.0
[35] = SF-268, log10 concentration −8.0
[36] = SK-MEL-5, log10 concentration −4.0
[37] = SK-MEL-5, log10 concentration −5.0
[38] = SK-MEL-5, log10 concentration −6.0
[39] = SK-MEL-5, log10 concentration −7.0
[40] = SK-MEL-5, log10 concentration −8.0
[41] = MDA-MB-435, log10 concentration −4.0
[42] = MDA-MB-435, log10 concentration −5.0
[43] = MDA-MB-435, log10 concentration −6.0
[44] = MDA-MB-435, log10 concentration −7.0
[45] = MDA-MB-435, log10 concentration −8.0

HIPK3, sequence (Q9H422 whole entry, species assumed): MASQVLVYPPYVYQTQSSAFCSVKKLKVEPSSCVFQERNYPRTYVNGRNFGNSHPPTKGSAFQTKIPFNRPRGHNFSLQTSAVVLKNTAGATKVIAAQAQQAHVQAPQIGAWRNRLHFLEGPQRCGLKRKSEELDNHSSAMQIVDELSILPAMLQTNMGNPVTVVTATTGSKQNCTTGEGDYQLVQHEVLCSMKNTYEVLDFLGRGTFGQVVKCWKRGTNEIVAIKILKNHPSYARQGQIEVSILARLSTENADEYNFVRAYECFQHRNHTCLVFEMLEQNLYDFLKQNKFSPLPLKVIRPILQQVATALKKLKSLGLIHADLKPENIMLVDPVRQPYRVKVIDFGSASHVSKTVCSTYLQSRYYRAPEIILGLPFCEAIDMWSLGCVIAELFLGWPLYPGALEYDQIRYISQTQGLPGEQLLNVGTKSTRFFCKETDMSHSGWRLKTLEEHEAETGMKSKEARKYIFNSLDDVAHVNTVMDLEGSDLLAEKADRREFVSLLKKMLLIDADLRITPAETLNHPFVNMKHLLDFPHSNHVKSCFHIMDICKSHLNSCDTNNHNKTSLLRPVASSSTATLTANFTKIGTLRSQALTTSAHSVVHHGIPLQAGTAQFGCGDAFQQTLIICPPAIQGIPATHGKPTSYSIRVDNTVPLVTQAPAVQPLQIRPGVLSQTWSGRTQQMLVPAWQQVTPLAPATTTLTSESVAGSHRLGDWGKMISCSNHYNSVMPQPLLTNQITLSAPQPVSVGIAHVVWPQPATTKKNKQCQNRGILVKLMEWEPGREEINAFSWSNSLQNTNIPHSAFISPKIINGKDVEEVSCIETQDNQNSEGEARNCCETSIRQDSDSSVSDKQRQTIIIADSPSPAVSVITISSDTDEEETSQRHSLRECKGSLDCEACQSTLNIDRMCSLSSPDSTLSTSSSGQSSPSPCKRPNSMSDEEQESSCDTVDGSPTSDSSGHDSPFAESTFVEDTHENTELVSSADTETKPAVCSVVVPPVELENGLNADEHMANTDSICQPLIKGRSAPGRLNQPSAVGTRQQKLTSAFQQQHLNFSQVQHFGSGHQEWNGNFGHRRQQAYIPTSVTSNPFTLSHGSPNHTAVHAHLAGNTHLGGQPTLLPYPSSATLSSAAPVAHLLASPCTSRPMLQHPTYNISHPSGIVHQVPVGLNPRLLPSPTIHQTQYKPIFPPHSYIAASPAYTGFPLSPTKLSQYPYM

`CC(C)c1cnn2c(NCc3ccccc3)cc(NCCCCCCCN)nc12` [BS-181] was tested, and the remaining activity at 10 µM [1] was 90%.

For `CC(C)c1cnn2c(NCc3ccccc3)cc(N[C@@H](CO)[C@H](O)CO)nc12` [ICEC0318, (3S)-3-(7-(Benzylamino)-3-isopropylpyrazolo[1,5-a]pyrimidin-5-ylamino)butane-1,2,4-triol], the GI50 [2] was 327 nM, the CC50 ([2]; read-out: LC50) was > 100000 nM and the GI50 ([3]; HCT-15) was 377 nM. For the same compound, the CC50 ([3]; HCT-15, read-out: LC50) was > 100000 nM, the GI50 ([4]; A549) was 338 nM and the CC50 ([4]; A549, read-out: LC50) was > 100000 nM. For the same compound, the GI50 ([5]; UACC-257) was 344 nM, the CC50 ([5]; UACC-257, read-out: LC50) was > 100000 nM and the TGI ([6]; DU-145 (Prostate Cancer)) was >1.00E−4. For the same compound, the “Mean Optical Densities” value [6, 21] was 0.204, the “Percent Growth” value [6, 21] was 3% and the “Mean Optical Densities” value [6, 22] was 0.250. For the same compound, the “Percent Growth” value [6, 22] was 12%, the “Mean Optical Densities” value [6, 23] was 0.277 and the “Percent Growth” value [6, 23] was 17%. The “Mean Optical Densities” value [6, 24] was 0.688, the “Percent Growth” value [6, 24] was 95% and the “Mean Optical Densities” value [6, 25] was 0.732. For the same compound, the “Percent Growth” value [6, 25] was 103%, the GI50 [7] was 276 nM and the CC50 ([7]; read-out: LC50) was > 100000 nM. For the same compound, the GI50 ([8]; SW-620) was 285 nM, the CC50 ([8]; SW-620, read-out: LC50) was > 100000 nM and the TGI ([9]; SF-295 (CNS Cancer)) was 3.10E−5. The “Mean Optical Densities” value [9, 26] was 0.371, the “Percent Growth” value [9, 26] was −4% and the “Mean Optical Densities” value [9, 27] was 0.427. The “Percent Growth” value [9, 27] was 4%, the “Mean Optical Densities” value [9, 28] was 0.447 and the “Percent Growth” value [9, 28] was 6%. For the same compound, the “Mean Optical Densities” value [9, 29] was 1.288, the “Percent Growth” value [9, 29] was 83% and the “Mean Optical Densities” value [9, 30] was 1.492. For the same compound, the “Percent Growth” value [9, 30] was 101%, the GI50 ([10]; CAKI-1) was 249 nM and the CC50 ([10]; CAKI-1, read-out: LC50) was > 100000 nM. For the same compound, the TGI ([11]; HS 578T (Breast Cancer)) was 8.54E−7, the “Mean Optical Densities” value ([11]; log10 concentration −4.0) was 0.314 and the “Percent Growth” value ([11]; log10 concentration −4.0) was −22%. The “Mean Optical Densities” value ([11]; log10 concentration −5.0) was 0.352, the “Percent Growth” value ([11]; log10 concentration −5.0) was −12% and the “Mean Optical Densities” value ([11]; log10 concentration −6.0) was 0.373. The “Percent Growth” value ([11]; log10 concentration −6.0) was −7%, the “Mean Optical Densities” value ([11]; log10 concentration −7.0) was 0.803 and the “Percent Growth” value ([11]; log10 concentration −7.0) was 95%. The “Mean Optical Densities” value ([11]; log10 concentration −8.0) was 0.867, the “Percent Growth” value ([11]; log10 concentration −8.0) was 110% and the GI50 ([12]; SF-295) was 266 nM. For the same compound, the CC50 ([12]; SF-295, read-out: LC50) was > 100000 nM, the GI50 ([13]; TK-10) was 377 nM and the CC50 ([13]; TK-10, read-out: LC50) was > 100000 nM. The TGI ([14]; SF-268 (CNS Cancer)) was 3.12E−5, the “Mean Optical Densities” value [14, 31] was 0.404 and the “Percent Growth” value [14, 31] was −5%. For the same compound, the “Mean Optical Densities” value [14, 32] was 0.460, the “Percent Growth” value [14, 32] was 5% and the “Mean Optical Densities” value [14, 33] was 0.452. For the same compound, the “Percent Growth” value [14, 33] was 4%, the “Mean Optical Densities” value [14, 34] was 1.234 and the “Percent Growth” value [14, 34] was 99%. The “Mean Optical Densities” value [14, 35] was 1.291, the “Percent Growth” value [14, 35] was 106% and the GI50 ([15]; SK-OV-3) was 565 nM. The CC50 ([15]; SK-OV-3, read-out: LC50) was > 100000 nM, the TGI ([16]; SK-MEL-5 (Melanoma)) was 5.33E−7 and the “Mean Optical Densities” value [16, 36] was 0.260. For the same compound, the “Percent Growth” value [16, 36] was −58%, the “Mean Optical Densities” value [16, 37] was 0.275 and the “Percent Growth” value [16, 37] was −56%. The “Mean Optical Densities” value [16, 38] was 0.427, the “Percent Growth” value [16, 38] was −31% and the “Mean Optical Densities” value [16, 39] was 2.036. The “Percent Growth” value [16, 39] was 82%, the “Mean Optical Densities” value [16, 40] was 2.375 and the “Percent Growth” value [16, 40] was 102%. For the same compound, the GI50 ([17]; SK-MEL-2) was 404 nM, the CC50 ([17]; SK-MEL-2, read-out: LC50) was > 100000 nM and the GI50 ([18]; MDA-MB-435) was 309 nM. The CC50 ([18]; MDA-MB-435, read-out: LC50) was > 100000 nM, the GI50 ([19]; BT-549) was 258 nM and the CC50 ([19]; BT-549, read-out: LC50) was > 100000 nM. The TGI ([20]; MDA-MB-435 (Breast Cancer)) was 1.15E−5, the “Mean Optical Densities” value [20, 41] was 0.242 and the “Percent Growth” value [20, 41] was −48%. For the same compound, the “Mean Optical Densities” value [20, 42] was 0.511, the “Percent Growth” value [20, 42] was 3% and the “Mean Optical Densities” value [20, 43] was 0.659. The “Percent Growth” value [20, 43] was 13%, the “Mean Optical Densities” value [20, 44] was 1.781 and the “Percent Growth” value [20, 44] was 86%. The “Mean Optical Densities” value [20, 45] was 2.132 and the “Percent Growth” value [20, 45] was 109%.

Source: patent US8067424B2, “Selective inhibitors for cyclin-dependent kinases” (Emory University, priority 2007, dated 2011)
